Test systems include CCRF-CEM leukemia; EKVX NSCLC; KM12 colon; OVCAR-3 ovarian; SK-MEL-2 melanoma.
Common to all, as to test: growth of human tumour cells (NCI), 48 h

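Tested at 5 concentrations; 48 h exposure; 96-well plates; endpoints linearly interpolated, else capped at highest concentration. At the TGI there is no net growth.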 Where only a bound is given, the exact number is not on record here.

Turning to `COc1cccc(Nc2nc(N)nc(N)c2N)c1`, the TGI was 52.7 µM in the assay with CCRF-CEM leukemia; more than 100 µM in the assay on EKVX NSCLC; more than 100 µM with KM12 colon; more than 100 µM in the assay on OVCAR-3 ovarian; more than 100 µM in the assay with SK-MEL-2 melanoma.

For the compound `CN(C(=O)C1=CCC2(CC1)OCCO2)c1ccccc1I`, the TGI in the assay with CCRF-CEM leukemia, in the assay with EKVX NSCLC, in the assay with KM12 colon, with OVCAR-3 ovarian and in the assay with SK-MEL-2 melanoma was more than 100 µM in each case.

With `CCS(=O)(=O)CCn1c(=O)c2c(ncn2C)n(C)c1=O`, the TGI with CCRF-CEM leukemia, in the assay on EKVX NSCLC, in the assay on KM12 colon, with OVCAR-3 ovarian and in the assay with SK-MEL-2 melanoma was more than 100 µM in each case.

`O=C1c2c(ccc3c2CCC3)CC12Cc1ccccc1C2`: the TGI is 46.1 µM in the assay on CCRF-CEM leukemia; more than 100 µM in the assay on EKVX NSCLC; 51.4 µM in the assay on KM12 colon; 82.2 µM in the assay with OVCAR-3 ovarian; 47.6 µM in the assay with SK-MEL-2 melanoma.

As for `C#Cc1cc(Br)c(OC(=O)C(C)(C)C)c(-c2cc(C#C)cc(Br)c2OC(=O)C(C)(C)C)c1`, the TGI in the assay on CCRF-CEM leukemia is 36.1 µM; in the assay with EKVX NSCLC it was more than 100 µM; in the assay with KM12 colon it was more than 100 µM; in the assay on OVCAR-3 ovarian it was more than 100 µM; in the assay with SK-MEL-2 melanoma, more than 100 µM.

Regarding `CCNC12CCC(C1)C(C)(C)C2=O` (stereo not given), the TGI in the assay on CCRF-CEM leukemia, with EKVX NSCLC, in the assay with KM12 colon, in the assay on OVCAR-3 ovarian and in the assay on SK-MEL-2 melanoma was more than 100 µM throughout.

As for `O=C(N/N=C/c1ccc([N+](=O)[O-])cc1)Nc1ccc(Br)cc1`, the TGI in the assay on CCRF-CEM leukemia was 84.5 µM; in the assay with EKVX NSCLC, more than 100 µM; in the assay on KM12 colon, more than 100 µM; in the assay with OVCAR-3 ovarian, more than 100 µM; in the assay on SK-MEL-2 melanoma, more than 100 µM.

Take `NC(=O)SCCC(N)C(=O)O` (stereo not given): the TGI in the assay on CCRF-CEM leukemia, in the assay on EKVX NSCLC, in the assay on KM12 colon, in the assay on OVCAR-3 ovarian and in the assay on SK-MEL-2 melanoma was more than 100 µM each time.

For `CN(C)c1nncc2n[nH]nc12`, the TGI in the assay with CCRF-CEM leukemia, in the assay on EKVX NSCLC, in the assay on KM12 colon, with OVCAR-3 ovarian and in the assay on SK-MEL-2 melanoma was more than 100 µM in each case.

With `COC1(OC)C=CC2C1C1C=CC2C1(OC)OC` (stereo not given), the TGI in the assay with CCRF-CEM leukemia, in the assay on EKVX NSCLC, in the assay on KM12 colon, with OVCAR-3 ovarian and with SK-MEL-2 melanoma was more than 100 µM throughout.

Regarding `COC(=O)[C@H]1COC(=O)N1`, the TGI in the assay on CCRF-CEM leukemia, in the assay on EKVX NSCLC, in the assay with KM12 colon, in the assay with OVCAR-3 ovarian and in the assay on SK-MEL-2 melanoma was more than 100 µM in each case.

For the compound `O/N=C1/CC2(N3CCOCC3)C3CC/C(=N\O)C2CC1(Cc1ccccc1)C3` (stereo not given), the TGI in the assay on CCRF-CEM leukemia, in the assay with EKVX NSCLC, in the assay with KM12 colon, in the assay on OVCAR-3 ovarian and in the assay on SK-MEL-2 melanoma was more than 100 µM in each case.

As for `Oc1c(Br)cc(/C=C/c2cccc(/C=C/c3cc(Br)c(O)c(Br)c3)n2)cc1Br`, the TGI with EKVX NSCLC turned out to be 34 µM; in the assay on KM12 colon, 25.2 µM; with OVCAR-3 ovarian it was 31.1 µM; with SK-MEL-2 melanoma, 20.1 µM.

As for `CCOC(OCC)N1C(=O)C2(C(OCC)OCC)CC3C(OC(=O)N3N)c3cccc1c32` (stereo not given), the TGI with CCRF-CEM leukemia, in the assay on EKVX NSCLC, with KM12 colon and in the assay with OVCAR-3 ovarian was more than 100 µM in each case.

`O=c1c(-c2ccccc2F)coc2cc(F)ccc12`: the TGI in the assay on CCRF-CEM leukemia, in the assay on EKVX NSCLC, in the assay on KM12 colon, with OVCAR-3 ovarian and with SK-MEL-2 melanoma was more than 100 µM in each case.

Take `O=C1/C(=C/c2ccc(Oc3ccccc3)cc2)N=C(c2ccccc2)N1c1ccc(S(=O)(=O)Nc2nccs2)cc1`: the TGI was more than 100 µM in the assay with CCRF-CEM leukemia; more than 100 µM in the assay with EKVX NSCLC; 53.7 µM in the assay with KM12 colon; more than 100 µM in the assay on OVCAR-3 ovarian; 16.1 µM in the assay on SK-MEL-2 melanoma.

With `CCN(CC)Cc1ccc(C(=S)Nc2ccc(C)cc2)s1`, the TGI is 30.8 µM in the assay on CCRF-CEM leukemia; 35.2 µM in the assay on EKVX NSCLC; 31 µM in the assay on KM12 colon; 70.9 µM with OVCAR-3 ovarian; 30.2 µM in the assay with SK-MEL-2 melanoma.

Consider `O=S(=O)(SC1=NCCN1)c1cccc2ccccc12`, for which the TGI with CCRF-CEM leukemia was more than 100 µM; in the assay on EKVX NSCLC, more than 100 µM; in the assay on KM12 colon it was 45.1 µM; in the assay on OVCAR-3 ovarian it was more than 100 µM; in the assay on SK-MEL-2 melanoma, more than 100 µM.

As to `O=C(NC(Cc1cnc[nH]1)C(=O)N1CCCC1)C1CCCC1` (stereo not given), the TGI in the assay on CCRF-CEM leukemia, in the assay with EKVX NSCLC, in the assay on KM12 colon and in the assay on OVCAR-3 ovarian was more than 100 µM in each case.

Turning to `COc1nc2c(c(=O)n1C)N=C(c1ccccc1)[C@H](C(CC(=O)c1ccccc1)c1ccccc1)C(c1ccccc1)N2` (stereo not given in full), the TGI in the assay with CCRF-CEM leukemia, in the assay with EKVX NSCLC, in the assay with KM12 colon, in the assay on OVCAR-3 ovarian and in the assay on SK-MEL-2 melanoma was more than 100 µM each time.

On to `CC1CN(c2cc3c(cc2F)c(=O)c(C(=O)O)cn3-c2ccc(F)cn2)CC(C)N1` (stereo not given), for which the TGI in the assay on CCRF-CEM leukemia, in the assay with EKVX NSCLC, in the assay on KM12 colon and in the assay on OVCAR-3 ovarian was more than 100 µM each time.

For the compound `CCOC(=O)c1c(C)n([O-])c2cc(Cl)c(Cl)cc2[n+]1=O`, the TGI in the assay with CCRF-CEM leukemia came to 45.9 µM; with EKVX NSCLC, 74.4 µM; with KM12 colon, 27.5 µM; in the assay on OVCAR-3 ovarian, 37.1 µM; in the assay with SK-MEL-2 melanoma, 52 µM.

For the compound `O=C1NNC2NC(=O)C3(NN2C1=O)c1ccccc1-c1ccccc13` (stereo not given), the TGI in the assay on CCRF-CEM leukemia, in the assay with EKVX NSCLC, with OVCAR-3 ovarian and with SK-MEL-2 melanoma was more than 100 µM each time.
